Results: PubChem BioAssay (NCI)
Several values for one entry are separate records, joined by “and”; a condition that tells them apart may be missing. Identical values can stand only once.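 Cells were grown in 96-well plates and exposed to each compound for 48 hours at five concentrations; endpoints were interpolated linearly between bracketing concentrations, or set to the highest concentration if not reached. GI50 = concentration required for 50% inhibition of growth. Definition used: TGI = concentration required for complete inhibition of growth.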 Where a SMILES comes first, the peptide text is derived from it. The star is where a group is joined. Trt = c1ccc(C(c2ccccc2)(c2ccccc2)*)cc1; Cbz = O=C(OCc1ccccc1)*

Experiments:
Experiment in all cases: inhibition of tumour cell growth, NCI panel, 48 h
SK-MEL-28 melanoma = system: SK-MEL-28 melanoma
HCT-116 colon = system: HCT-116 colon
SF-268 CNS = system: SF-268 CNS
ACHN renal = system: ACHN renal
OVCAR-5 ovarian = system: OVCAR-5 ovarian
NCI-H460 lung = system: NCI-H460 lung
MOLT-4 leukemia = system: MOLT-4 leukemia
SK-MEL-5 melanoma = system: SK-MEL-5 melanoma
SK-MEL-2 melanoma = system: SK-MEL-2 melanoma
MDA-MB-231 breast = system: MDA-MB-231 breast

SMILES	TGI (SK-MEL-28 melanoma)	TGI (HCT-116 colon)	TGI (SF-268 CNS)	TGI (ACHN renal)	TGI (OVCAR-5 ovarian)	TGI (NCI-H460 lung)	TGI (MOLT-4 leukemia)	TGI (SK-MEL-5 melanoma)	TGI (SK-MEL-2 melanoma)	TGI (MDA-MB-231 breast)	GI50 (SK-MEL-28 melanoma)	GI50 (HCT-116 colon)	GI50 (SF-268 CNS)	GI50 (ACHN renal)	GI50 (OVCAR-5 ovarian)	GI50 (NCI-H460 lung)	GI50 (MOLT-4 leukemia)	GI50 (SK-MEL-5 melanoma)	GI50 (SK-MEL-2 melanoma)	GI50 (MDA-MB-231 breast)
O=S(=O)(O)SCCNCCCCCC1CCCCC1	18.3 µM	10.2 µM	23.5 µM	30.3 µM	23.8 µM	9.16 µM	> 31 µM	31.9 µM	8.68 µM	30 µM	–	–	–	–	–	–	–	–	–	–
O=C(NOCCO)c1cc(CN2OCCCC2=O)c(F)c(F)c1Nc1ccc(I)cc1F	0.0712 µM and 0.124 µM	28.6 µM and > 10 µM	> 100 µM	> 100 µM	> 100 µM	> 100 µM	> 100 µM	23.9 µM and > 10 µM	–	62.2 µM and > 10 µM	< 0.01 µM and 0.00249 µM	0.0171 µM and 0.0207 µM	22.6 µM and > 10 µM	4.28 µM	< 0.01 µM and 0.00485 µM	12.9 µM and > 10 µM	38.2 µM and > 10 µM	0.597 µM	< 0.01 µM and 0.00324 µM	0.243 µM and 0.116 µM
O=Cc1ccc(N2CCN(c3ccc(C=O)cc3)CC2)cc1	> 100 µM	> 100 µM	> 100 µM	> 100 µM	8.09 µM	> 100 µM	> 100 µM	> 100 µM	> 100 µM	> 100 µM	> 100 µM	71.5 µM	> 100 µM	> 100 µM	2.6 µM	77.2 µM	> 100 µM	> 100 µM	> 100 µM	> 100 µM
O=C(C=C=Nc1ccccc1)C(=O)N=C=Cc1ccccc1	3.85 µM	3.84 µM	12.1 µM	4.6 µM	11.8 µM	44.1 µM	5.8 µM	17.7 µM	8.36 µM	10.4 µM	1.88 µM	1.55 µM	3.43 µM	1.76 µM	2.88 µM	14.1 µM	1.14 µM	5.16 µM	1.49 µM	3.15 µM
CC(/C=N/N=C(N)N)=N\N=C(N)N	363 µM	1370 µM	92.4 µM	2110 µM	347 µM	201 µM	463 µM	604 µM	149 µM	965 µM	> 80.2 µM	52.1 µM	23.1 µM	> 43.5 µM	41 µM and 19.4 µM	26.3 µM	28.2 µM	> 79.5 µM	28.9 µM	7.67 µM
Cc1cc(Br)cc(C)c1NC(=O)C(=O)Nn1c(=S)[nH]c2ccccc2c1=O	> 100 µM	> 100 µM	> 100 µM	> 100 µM	> 100 µM	> 100 µM	> 100 µM	> 100 µM	> 100 µM	> 100 µM	–	–	–	–	–	–	–	–	–	–
COC(=O)C(CSC(c1ccccc1)(c1ccccc1)c1ccccc1)NC(=O)C(CC(N)=O)NC(=O)OCc1ccccc1 (stereo not drawn) (Cbz-Asn-Cys(Trt)-OMe; configuration not given here)	15.4 µM	10.7 µM	13.2 µM	22.4 µM	20.2 µM	15.8 µM	5.2 µM	14.4 µM	5.49 µM	10.9 µM	3.42 µM	2.79 µM	3.08 µM	5.11 µM	7.23 µM	4.5 µM	2.1 µM	3.23 µM	2.12 µM	2.93 µM
COc1ccc(C(=O)c2cc3c(N)c(C(=O)Nc4cccc(OC)c4)sc3nc2C)cc1	> 100 µM	> 100 µM	> 100 µM	> 100 µM	> 100 µM	> 100 µM	> 100 µM	> 46.1 µM	> 100 µM	> 100 µM	> 100 µM	0.368 µM	1.75 µM	0.853 µM	1.54 µM	0.741 µM	0.745 µM	0.643 µM	> 100 µM	1.47 µM
CSCCCNC(=O)[C@H](CSC)NC(=O)c1csc(CCNC(=O)[C@@H](NSc2ccccc2[N+](=O)[O-])C(C)O)n1 (stereo partly drawn)	> 100 µM	> 100 µM	> 100 µM	> 100 µM	> 100 µM	> 100 µM	> 100 µM	> 100 µM	> 100 µM	> 100 µM	–	–	–	–	–	–	–	–	–	–
Cc1cc(Nc2nc(-c3ccncc3)nc3ccccc23)n[nH]1	> 100 µM	> 100 µM	> 100 µM	> 100 µM	> 100 µM	> 100 µM	> 100 µM	> 100 µM	> 100 µM	> 100 µM	88.8 µM	1.99 µM	5.62 µM	1.06 µM	> 100 µM	6.18 µM	33.9 µM	52.6 µM	34.3 µM	14.7 µM
CC(C(N)=O)N(C)C(=O)c1cnc2ccccc2c1 (stereo not drawn)	> 100 µM	> 100 µM	–	> 100 µM	> 100 µM	> 100 µM	> 100 µM	> 100 µM	> 100 µM	> 100 µM	–	–	–	–	–	–	–	–	–	–
O=C(Nc1cccc(C(F)(F)F)c1)c1cc2ccccc2cc1O	> 100 µM	10.1 µM	> 100 µM	> 30.4 µM	> 100 µM	> 44.1 µM	> 35.6 µM	3.5 µM	18.7 µM	7.08 µM	3.05 µM	1.15 µM	2.7 µM	1.78 µM	3.5 µM	1.41 µM	3.37 µM	0.987 µM	2.7 µM	2.08 µM
CN=C(N)N/N=C(\C)c1ccc2c(c1)Cc1ccccc1-2	4.63 µM	2.74 µM	5.25 µM	3.61 µM	3.96 µM	1.81 µM	1.49 µM	2.95 µM	3.81 µM	4.31 µM	2.22 µM	1.43 µM	2.13 µM	1.78 µM	1.65 µM	0.556 µM	0.352 µM	1.61 µM	1.87 µM	1.78 µM
